PubChem BioAssay (NCI)
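Exposure lasted 48 hours, with cells grown in 96-well plates and compounds tested at five concentrations. Abbreviation: GI50, concentration required for 50% inhibition of growth. Definition used: TGI = concentration required for complete inhibition of growth.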

Tests used:
Test in all cases: DTP human tumour cell line panel, 48 h
UO-31 renal = system: UO-31 renal
OVCAR-3 ovarian = system: OVCAR-3 ovarian
SK-MEL-2 melanoma = system: SK-MEL-2 melanoma
KM12 colon = system: KM12 colon
OVCAR-8 ovarian = system: OVCAR-8 ovarian
SK-MEL-28 melanoma = system: SK-MEL-28 melanoma
HL-60(TB) leukemia = system: HL-60(TB) leukemia
SW-620 colon = system: SW-620 colon
SF-295 CNS = system: SF-295 CNS
TK-10 renal = system: TK-10 renal
HOP-62 NSCLC = system: HOP-62 NSCLC
NCI-H226 lung = system: NCI-H226 lung
HCC-2998 colon = system: HCC-2998 colon
MALME-3M melanoma = system: MALME-3M melanoma
SNB-75 CNS = system: SNB-75 CNS
NCI-H23 lung = system: NCI-H23 lung
OVCAR-5 ovarian = system: OVCAR-5 ovarian
SNB-19 CNS = system: SNB-19 CNS
RPMI-8226 leukemia = system: RPMI-8226 leukemia
MCF7 breast = system: MCF7 breast
K-562 leukemia = system: K-562 leukemia
HOP-92 NSCLC = system: HOP-92 NSCLC
SR leukemia = system: SR leukemia
U251 CNS = system: U251 CNS
786-0 renal = system: 786-0 renal
SK-OV-3 ovarian = system: SK-OV-3 ovarian
RXF 393 renal = system: RXF 393 renal
NCI/ADR-RES ovarian = system: NCI/ADR-RES ovarian
ACHN renal = system: ACHN renal
PC-3 prostate = system: PC-3 prostate
COLO 205 colon = system: COLO 205 colon
MDA-MB-231 breast = system: MDA-MB-231 breast
NCI-H522 lung = system: NCI-H522 lung
UACC-257 melanoma = system: UACC-257 melanoma
A549 NSCLC = system: A549 NSCLC
SF-539 CNS = system: SF-539 CNS
SF-268 CNS = system: SF-268 CNS
HCT-15 colon = system: HCT-15 colon
CAKI-1 renal = system: CAKI-1 renal
NCI-H460 lung = system: NCI-H460 lung
OVCAR-4 ovarian = system: OVCAR-4 ovarian
HS 578T breast = system: HS 578T breast
SN12C renal = system: SN12C renal
A498 renal = system: A498 renal
M14 melanoma = system: M14 melanoma
MDA-MB-435 = system: MDA-MB-435
BT-549 breast = system: BT-549 breast
MOLT-4 leukemia = system: MOLT-4 leukemia
IGROV1 ovarian = system: IGROV1 ovarian
DU-145 prostate = system: DU-145 prostate
UACC-62 melanoma = system: UACC-62 melanoma
HT29 colon = system: HT29 colon
HCT-116 colon = system: HCT-116 colon
LOX IMVI melanoma = system: LOX IMVI melanoma
CCRF-CEM leukemia = system: CCRF-CEM leukemia

Cc1cc(C)c(C#N)c(SCC(=O)c2sc3c(C#N)c(C)cc(C)[n+]3c2[O-])n1
GI50 (UO-31 renal): 1140 nM
TGI (UO-31 renal): > 100000 nM
GI50 (OVCAR-3 ovarian): 340 nM
TGI (OVCAR-3 ovarian): 1080 nM
GI50 (SK-MEL-2 melanoma): 624 nM
TGI (SK-MEL-2 melanoma): 56200 nM
GI50 (KM12 colon): 401 nM
TGI (KM12 colon): > 100000 nM
GI50 (OVCAR-8 ovarian): 513 nM
TGI (OVCAR-8 ovarian): > 100000 nM
GI50 (SK-MEL-28 melanoma): 1410 nM
TGI (SK-MEL-28 melanoma): > 100000 nM
GI50 (HL-60(TB) leukemia): 277 nM
TGI (HL-60(TB) leukemia): 892 nM
GI50 (SW-620 colon): 340 nM
TGI (SW-620 colon): > 100000 nM
GI50 (SF-295 CNS): 307 nM
TGI (SF-295 CNS): > 29300 nM
GI50 (TK-10 renal): 1500 nM
TGI (TK-10 renal): > 100000 nM
GI50 (HOP-62 NSCLC): 4170 nM
TGI (HOP-62 NSCLC): > 100000 nM
GI50 (NCI-H226 lung): 1330 nM
TGI (NCI-H226 lung): > 100000 nM
GI50 (HCC-2998 colon): 867 nM
TGI (HCC-2998 colon): > 100000 nM
GI50 (MALME-3M melanoma): 4240 nM
TGI (MALME-3M melanoma): > 100000 nM
GI50 (SNB-75 CNS): 336 nM
TGI (SNB-75 CNS): > 27200 nM
GI50 (NCI-H23 lung): 697 nM
TGI (NCI-H23 lung): > 100000 nM
GI50 (OVCAR-5 ovarian): 607 nM
TGI (OVCAR-5 ovarian): > 100000 nM
GI50 (SNB-19 CNS): 504 nM
TGI (SNB-19 CNS): > 100000 nM
GI50 (RPMI-8226 leukemia): 491 nM
TGI (RPMI-8226 leukemia): > 100000 nM
GI50 (MCF7 breast): 166 nM
TGI (MCF7 breast): > 100000 nM
GI50 (K-562 leukemia): 376 nM
TGI (K-562 leukemia): > 100000 nM
GI50 (HOP-92 NSCLC): 514 nM
TGI (HOP-92 NSCLC): > 50700 nM
GI50 (SR leukemia): 228 nM
TGI (SR leukemia): > 100000 nM
GI50 (U251 CNS): 374 nM
TGI (U251 CNS): 98800 nM
GI50 (786-0 renal): 692 nM
TGI (786-0 renal): > 52600 nM
GI50 (SK-OV-3 ovarian): 678 nM
TGI (SK-OV-3 ovarian): > 100000 nM
GI50 (RXF 393 renal): 238 nM
TGI (RXF 393 renal): 777 nM
GI50 (NCI/ADR-RES ovarian): 366 nM
TGI (NCI/ADR-RES ovarian): 17800 nM
GI50 (ACHN renal): 725 nM
TGI (ACHN renal): > 100000 nM
GI50 (PC-3 prostate): 436 nM
TGI (PC-3 prostate): > 100000 nM
GI50 (COLO 205 colon): 383 nM
TGI (COLO 205 colon): 6250 nM
GI50 (MDA-MB-231 breast): 890 nM
TGI (MDA-MB-231 breast): > 100000 nM
GI50 (NCI-H522 lung): 244 nM
TGI (NCI-H522 lung): 692 nM
GI50 (UACC-257 melanoma): 531 nM
TGI (UACC-257 melanoma): > 100000 nM
GI50 (A549 NSCLC): 474 nM
TGI (A549 NSCLC): > 100000 nM
GI50 (SF-539 CNS): 88.1 nM
TGI (SF-539 CNS): 501 nM
GI50 (SF-268 CNS): 1130 nM
TGI (SF-268 CNS): > 100000 nM
GI50 (HCT-15 colon): 242 nM
TGI (HCT-15 colon): > 100000 nM
GI50 (CAKI-1 renal): 617 nM
TGI (CAKI-1 renal): > 100000 nM
GI50 (NCI-H460 lung): 362 nM
TGI (NCI-H460 lung): > 100000 nM
GI50 (OVCAR-4 ovarian): 2240 nM
TGI (OVCAR-4 ovarian): > 100000 nM
GI50 (HS 578T breast): 335 nM
TGI (HS 578T breast): > 100000 nM
GI50 (SN12C renal): 534 nM
TGI (SN12C renal): > 100000 nM
GI50 (A498 renal): 135 nM
TGI (A498 renal): 2070 nM
GI50 (M14 melanoma): 309 nM
GI50 (MDA-MB-435): 97.9 nM
TGI (MDA-MB-435): 538 nM
GI50 (BT-549 breast): 859 nM
TGI (BT-549 breast): > 100000 nM
GI50 (MOLT-4 leukemia): 596 nM
TGI (MOLT-4 leukemia): > 100000 nM
GI50 (IGROV1 ovarian): 1100 nM
TGI (IGROV1 ovarian): > 100000 nM
GI50 (DU-145 prostate): 472 nM
GI50 (UACC-62 melanoma): 559 nM
TGI (UACC-62 melanoma): > 100000 nM
GI50 (HT29 colon): 329 nM
TGI (HT29 colon): 1760 nM
GI50 (HCT-116 colon): 367 nM
TGI (HCT-116 colon): > 100000 nM
GI50 (LOX IMVI melanoma): 750 nM
TGI (LOX IMVI melanoma): > 100000 nM
GI50 (CCRF-CEM leukemia): 333 nM
TGI (CCRF-CEM leukemia): > 100000 nM
